Assay results reported in PMC7036753, “Lipidated Analogs of the LL-37-Derived Peptide Fragment KR12—Structural Analysis, Surface-Active Properties and Antimicrobial Activity” (International Journal of Molecular Sciences, 2020).
Converted amounts (≈) assume the structure as drawn. Peptide text beside a SMILES is read from it. * marks the point of attachment. Bz = O=C(c1ccccc1)*

Assays:
E. faecium ATCC 700221 = format: cell-based, Enterococcus faecium; conditions: E. faecium ATCC 700221; Mueller-Hinton Broth, 18 h
Experimental: (§1) Examination of antimicrobial activity of the test compounds was conducted on reference strains of bacteria assigned to ESKAPE group of pathogens: Enterococcus faecium ATCC 700221, Klebsiella pneumoniae ATCC 700603, Acinetobacter baumannii ATCC BAA-1605, Pseudomonas aeruginosa ATCC 9027, Klebsiella aerogenes ATCC 13048 (formerly Enterobacter aerogenes) and reference strains of Staphylococcus aureus, namely: S. aureus ATCC 25923, S. aureus ATCC 6538, S. aureus ATCC 33591 (MRSA), S. aureus ATCC 9144 and S. aureus ATCC 12598. All the strains were stored at −80 °C in Roti®-Store cryo vials (Carl Roth GmbH, Karlsruhe, Germany) and before the tests were transferred into fresh Mueller-Hinton Medium (BioMaxima, Lublin, Poland) and incubated for 24 h at 37 °C. Subsequently, each bacterial inoculum was seeded on Mueller-Hinton Agar plates (BioMaxima) and incubated again for 24 h. The cultures prepared in this way were used in further antimicrobial assays and prepared as described above. The MIC values were determined by the broth microdilution method according to Clinical and Laboratory Standards Institute Protocol. For this purpose, initial inoculums of bacteria (0.5 × 10^5 colony forming unit (CFU)/mL) in Mueller–Hinton Broth were exposed to the ranging concentrations of compounds (0.5–256 µg/mL) and incubated for 18 h at 37 °C. The experiments were conducted on 96-well microtiter plates, with a final volume of 100 µL. Cell densities were adjusted spectrophotometrically (Multiskan™ GO Microplate Spectrophotometer, Thermo Scientific) at 600 nm. The MICs were taken as the lowest drug concentration at which a visible growth of microorganisms was inhibited. All experiments were conducted in triplicate and included positive (growth) and negative (sterility) controls.

[1] = system: K. pneumoniae ATCC 700603; format: cell-based, Klebsiella pneumoniae; conditions: K. pneumoniae ATCC 700603; Mueller-Hinton Broth, 18 h
Experimental: as §1

[2] = system: A. baumannii ATCC BAA-1605; format: cell-based, Acinetobacter baumannii; conditions: A. baumannii ATCC BAA-1605; Mueller-Hinton Broth, 18 h
Experimental: as §1

P. aeruginosa ATCC 9027 = format: cell-based, Pseudomonas aeruginosa; conditions: P. aeruginosa ATCC 9027; Mueller-Hinton Broth, 18 h
Experimental: as §1

K. aerogenes ATCC 13048 = format: cell-based, Klebsiella aerogenes; conditions: K. aerogenes ATCC 13048; Mueller-Hinton Broth, 18 h
Experimental: as §1

S. aureus ATCC 12598 = format: cell-based, Staphylococcus aureus; conditions: S. aureus ATCC 12598; Mueller-Hinton Broth, 18 h
Experimental: as §1

S. aureus ATCC 25923 = format: cell-based, Staphylococcus aureus; conditions: S. aureus ATCC 25923; Mueller-Hinton Broth, 18 h
Experimental: as §1

[3] = system: S. aureus ATCC 33591 (MRSA); format: cell-based, Staphylococcus aureus; conditions: S. aureus ATCC 33591 (MRSA); Mueller-Hinton Broth, 18 h
Experimental: as §1

S. aureus ATCC 6538 = format: cell-based, Staphylococcus aureus; conditions: S. aureus ATCC 6538; Mueller-Hinton Broth, 18 h
Experimental: as §1

S. aureus ATCC 9144 = format: cell-based, Staphylococcus aureus; conditions: S. aureus ATCC 9144; Mueller-Hinton Broth, 18 h
Experimental: as §1

[4] = system: human red blood cells (hRBCs); test: Hemolysis assay; format: cell-based; conditions: concentration range 0.5–256 μg/mL
Experimental: Then the stock RBCs solution was added up to a final volume of 100 μL with a 4% concentration of erythrocytes (v/v). The control wells for 0 and 100% hemolysis were also prepared. They consisted of RBCs suspended in PBS and 1% of Triton-X 100, respectively.

[5] = system: reference strains of S. aureus; format: cell-based, Staphylococcus aureus; conditions: five reference strains of S. aureus
Experimental: as §1, with “For this purpose, initial inoculums of bacteria (0.5 × 10^5 colony forming unit (CFU)/mL) in Mueller–Hinton Broth were exposed to the ranging concentrations of compounds (0.5–256 µg/mL) and incubated for 18 h at 37 °C.” left out

**Q.** `CC[C@H](C)[C@H](NC(=O)[C@H](CCCNC(=N)N)NC(=O)[C@H](CCC(N)=O)NC(=O)[C@@H](NC(=O)[C@@H](NC(=O)[C@H](CCCNC(=N)N)NC(=O)[C@H](CCCCN)NC(=O)c1ccccc1)[C@@H](C)CC)C(C)C)C(=O)N[C@@H](CCCCN)C(=O)N[C@@H](CC(=O)O)C(=O)N[C@@H](Cc1ccccc1)C(=O)N[C@@H](CC(C)C)C(=O)N[C@@H](CCCNC(=N)N)C(N)=O` [VIII, Benzoic acid-KR12-NH2] (Bz-KRIVQRIKDFLR-NH2) was tested. Which MIC (E. faecium ATCC 700221) did it give?
**A.** Its MIC is 1 µg/mL (≈ 0.597 µM).

**Q.** What about the MIC [1] of the same compound?
**A.** The MIC was 16 µg/mL (≈ 9.55 µM).

**Q.** And the MIC [2]?
**A.** Its MIC is 16 µg/mL (≈ 9.55 µM).

**Q.** And the MIC (P. aeruginosa ATCC 9027)?
**A.** Its MIC is 8 µg/mL (≈ 4.78 µM).

**Q.** What about the MIC (K. aerogenes ATCC 13048) of the same compound?
**A.** The MIC was 16 µg/mL (≈ 9.55 µM).

**Q.** And the MIC (S. aureus ATCC 12598)?
**A.** Its MIC is 16 µg/mL (≈ 9.55 µM).

**Q.** What about the MIC (S. aureus ATCC 25923) of the same compound?
**A.** Its MIC is 32 µg/mL (≈ 19.1 µM).

**Q.** And the MIC [3]?
**A.** The MIC was 32 µg/mL (≈ 19.1 µM).

**Q.** And the MIC (S. aureus ATCC 6538)?
**A.** Its MIC is 8 µg/mL (≈ 4.78 µM).

**Q.** And the MIC (S. aureus ATCC 9144)?
**A.** Its MIC is 16 µg/mL (≈ 9.55 µM).

**Q.** And the “hemolysis of hRBCs” value [4]?
**A.** The value was “did not cause hemolysis”.

**Q.** What about the “GM (geometric mean of the MIC values against S. aureus)” value [5] of the same compound?
**A.** Its value is 18.38 µg/mL.
